Reference: patent US9040717B2, “Pyrazole-amide compounds and pharmaceutical use thereof” (JAPAN TOBACCO INC., priority 2013, dated 2015)

Target: hERG (Homo sapiens (Human), UniProt Q12809)
Experiment: hERG whole cell patch clamp test
Type: cell-based
Details: human, hERG-transfected HEK293 cells, pH 7.4; whole cell patch clamp
Description: Using human ether-a-go-go related gene (hERG)-transfected HEK293 cells (Cytomyx Limited), an influence on hERG current was examined according to the whole cell patch clamp technique. The hERG-transfected HEK293 cells were passaged using a CO2 incubator (BNA-111, TABAI ESPEC CORP.) under the set conditions of 37° C., 5% CO2, saturated humidity. Culture containers used were Collagen Type I Coated 75 cm^2 flask (4123-010, AGC TECHNO GLASS CO., Ltd.) and Collagen Type I Coated 35 mm culture dish (4000-010, AGC TECHNO GLASS CO., Ltd.). The culture medium used was E-MEM (Eagle Minimum Essential Medium (Earle's Salts, Nikken biomedical laboratory) added with 10% FCS (Fetal calf serum, BioWest, L.L.C.) and 1% MEM Non-Essential Amino Acids Solution (NEAA, Invitrogen Corporation). Geneticin for the selection of hERG gene expressing cells was added thereto to a concentration of 400 μg/mL. As the cells for the measurement, 3×10^4 hERG-transfected HEK293 cells were plated on a 35 mm culture dish 4 to 7 days before measurement of the hERG current. The culture dish produced for the measurement contained the above-mentioned culture medium without geneticin (Invitrogen Corporation).
The highest evaluation concentration of each compound was determined from the highest concentration at which precipitation was not found in the standard extracellular fluid (NaCl: 140 mmol/L, KCl: 2.5 mmol/L, MgCl2:2 mmol/L, CaCl2: 2 mmol/L, HEPES: 10 mmol/L, glucose: 10 mmol/L (adjusted to pH 7.4 with Tris-base)). As the application method, each solution to be applied was ejected from a Y-tube having a tip diameter of about 0.25 mm, which was adjacent (about 2 mm) to the cells, and applied to the cells. The ejection rate was about 0.4 mL/min.
The experiment was performed at room temperature under a phase contrast microscope. The 35 mm culture dish plated with the cells was set on a measurement apparatus, and the standard extracellular fluid was continuously applied to the cells from the Y-tube. A glass electrode for the measurement was filled with an intracellular fluid (Potassium Gluconate: 130 mmol/L, KCl: 20 mmol/L, MgCl2: 1 mmol/L, ATP-Mg: 5 mmol/L, EGTA: 3.5 mmol/L, HEPES: 10 mmol/L (adjusted to pH 7.2 with Tris-base)). A conventional whole cell patch clamp method was applied to the cells, and the maintenance electric potential was set to −80 mV. Under a fixed electric potential, the whole cell current was amplified by an amplifier for patch clamp (AXOPATCH-200B, Axon Instruments, Inc.), and the data was loaded into a computer (IMC-P642400, Intermedical Co., Ltd.) using a data acquisition analysis software (pCLAMP 9.2, Axon Instruments, Inc.).
The measurement of the hERG current was performed in the following two steps. In both cases, the hERG current was initiated by giving a command potential (maintenance electric potential −80 mV, prepulse +20 mV, 1.5 sec, test-pulse −50 mV, 1.5 sec).
Step (1): The above-mentioned command potential was given at 0.1 Hz for 2 min.
Step (2): The above-mentioned command potential was subjected to P/3 subtraction of pCLAMP 9.2 to remove leak current. This was repeated three times and an average thereof was taken as hERG current.
Subsequent to step (1), Step (2) was performed (about 3 min), and the maximum tail current obtained by applying a test-pulse to the hERG current obtained by the method of step (2) was taken as hERG current value. Hereafter, the operations of (1) and (2) were alternately repeated until completion of the experiment and the hERG current value was measured.
Stable hERG current value was recorded three times (about 10 min), and the standard extracellular fluid was instantaneously exchanged with each application fluid. The hERG current value was measured three times (about 10 min) in the same manner during perfusion of the application fluid, and the current value obtained by the 3rd measurement was taken as hERG current value after perfusion of the application fluid. […]

Sequence of hERG (Q12809 whole entry): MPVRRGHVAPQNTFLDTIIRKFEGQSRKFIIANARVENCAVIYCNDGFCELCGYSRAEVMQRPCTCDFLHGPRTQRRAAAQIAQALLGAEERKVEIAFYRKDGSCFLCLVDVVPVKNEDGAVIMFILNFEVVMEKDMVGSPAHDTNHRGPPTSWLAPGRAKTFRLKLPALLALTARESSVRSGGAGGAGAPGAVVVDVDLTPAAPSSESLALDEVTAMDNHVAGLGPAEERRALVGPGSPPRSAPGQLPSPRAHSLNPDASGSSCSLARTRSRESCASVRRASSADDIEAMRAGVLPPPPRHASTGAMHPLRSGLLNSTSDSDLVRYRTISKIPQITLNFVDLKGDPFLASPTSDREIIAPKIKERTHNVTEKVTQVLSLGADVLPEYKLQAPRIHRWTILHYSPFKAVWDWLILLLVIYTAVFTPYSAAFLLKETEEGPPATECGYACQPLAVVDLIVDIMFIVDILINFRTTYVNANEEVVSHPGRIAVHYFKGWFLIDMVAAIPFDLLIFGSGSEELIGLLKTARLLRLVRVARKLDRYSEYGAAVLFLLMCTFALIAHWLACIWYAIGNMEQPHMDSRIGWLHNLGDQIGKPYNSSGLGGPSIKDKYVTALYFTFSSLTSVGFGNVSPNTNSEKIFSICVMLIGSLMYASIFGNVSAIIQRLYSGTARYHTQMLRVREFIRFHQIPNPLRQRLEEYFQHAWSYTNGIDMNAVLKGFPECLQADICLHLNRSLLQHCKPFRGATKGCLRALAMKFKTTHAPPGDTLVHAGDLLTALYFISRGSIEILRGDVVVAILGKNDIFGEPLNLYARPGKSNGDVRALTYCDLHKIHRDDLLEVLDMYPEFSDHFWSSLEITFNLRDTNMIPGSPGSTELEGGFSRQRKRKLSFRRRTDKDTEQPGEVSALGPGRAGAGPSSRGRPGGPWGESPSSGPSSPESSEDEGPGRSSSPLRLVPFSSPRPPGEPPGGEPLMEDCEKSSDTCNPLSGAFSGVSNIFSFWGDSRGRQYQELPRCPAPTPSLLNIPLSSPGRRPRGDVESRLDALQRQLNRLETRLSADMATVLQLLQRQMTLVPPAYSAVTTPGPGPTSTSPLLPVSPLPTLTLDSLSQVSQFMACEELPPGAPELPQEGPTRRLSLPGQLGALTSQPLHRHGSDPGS

NC(=O)Cn1cc(-c2cc(OCCC34CC5CC(CC(O)(C5)C3)C4)cc3c2-c2ccccc2[C@]3(O)C(F)(F)F)cn1 [Compound (A), 2-(4-{(9R)-9-Hydroxy-2-[2-(3-hydroxyadamantan-1-yl)ethoxy]-9-(trifluoromethyl)-9H-fluoren-4-yl}-1H-pyrazol-1-yl)acetamide]
IC50 at 10 min: > 10 µM
